Reference: ChEMBL document CHEMBL2331288 (Bioorg Med Chem Lett, 2013)

Key:
[1] = molecular target: 72 kDa type IV collagenase (Homo sapiens, UniProt P08253)
Description: Inhibition of human recombinant MMP2 using succinylated gelatin as substrate incubated for 30 mins prior to substrate addition measured after 60 mins

[2] = molecular target: T1, Interstitial collagenase (Homo sapiens, UniProt P03956)
T1 sequence (P03956 whole entry): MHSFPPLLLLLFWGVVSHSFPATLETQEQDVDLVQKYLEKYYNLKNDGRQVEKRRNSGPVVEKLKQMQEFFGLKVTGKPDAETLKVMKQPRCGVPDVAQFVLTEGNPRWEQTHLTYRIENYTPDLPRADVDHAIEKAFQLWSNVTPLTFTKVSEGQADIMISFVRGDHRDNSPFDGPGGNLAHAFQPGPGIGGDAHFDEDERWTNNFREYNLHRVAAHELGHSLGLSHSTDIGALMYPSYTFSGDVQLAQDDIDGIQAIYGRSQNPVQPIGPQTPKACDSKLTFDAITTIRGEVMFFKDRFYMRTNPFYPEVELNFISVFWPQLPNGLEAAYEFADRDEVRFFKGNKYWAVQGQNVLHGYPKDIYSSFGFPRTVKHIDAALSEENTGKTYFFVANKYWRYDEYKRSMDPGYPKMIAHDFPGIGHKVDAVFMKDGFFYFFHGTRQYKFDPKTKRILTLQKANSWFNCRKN
Description: Inhibition of human recombinant MMP1 using succinylated gelatin as substrate incubated for 30 mins prior to substrate addition measured after 60 mins

Chain of 72 kDa type IV collagenase (P08253 whole entry): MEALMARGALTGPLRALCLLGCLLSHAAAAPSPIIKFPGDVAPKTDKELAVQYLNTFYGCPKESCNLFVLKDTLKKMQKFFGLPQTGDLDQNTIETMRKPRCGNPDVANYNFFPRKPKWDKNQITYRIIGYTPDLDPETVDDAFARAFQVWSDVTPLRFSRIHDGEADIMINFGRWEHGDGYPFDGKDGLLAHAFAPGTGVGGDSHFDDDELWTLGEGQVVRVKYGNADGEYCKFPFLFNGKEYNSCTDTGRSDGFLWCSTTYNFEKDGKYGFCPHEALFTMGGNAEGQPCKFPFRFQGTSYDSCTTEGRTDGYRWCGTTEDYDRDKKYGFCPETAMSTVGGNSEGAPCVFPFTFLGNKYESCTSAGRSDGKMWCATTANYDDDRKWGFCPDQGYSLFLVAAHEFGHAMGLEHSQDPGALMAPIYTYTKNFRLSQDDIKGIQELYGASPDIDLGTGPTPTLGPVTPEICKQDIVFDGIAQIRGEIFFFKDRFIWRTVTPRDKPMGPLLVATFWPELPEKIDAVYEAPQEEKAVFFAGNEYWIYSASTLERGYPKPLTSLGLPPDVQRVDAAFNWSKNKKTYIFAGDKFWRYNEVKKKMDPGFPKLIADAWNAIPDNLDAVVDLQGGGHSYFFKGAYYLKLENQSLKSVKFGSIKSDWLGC

Row | IC50 [1] [µM] | IC50 [2] [µM] | Structure (SMILES)
1 | 0.00831 | 4.37 | O=C(/C=C/c1ccc(O)c(O)c1)Nc1ccc(F)cc1
2 | 1.68 | 5.29 | COc1cccc(NC(=O)/C=C/c2ccc(O)c(O)c2)c1
3 | 0.00342 | 5.32 | COc1ccc(NC(=O)/C=C/c2ccc(O)c(O)c2)cc1
4 | 0.00911 | 3.71 | O=C(/C=C/c1ccc(O)c(O)c1)Nc1ccccc1Cl
5 | 1.82 | 4.3 | O=C(/C=C/c1ccc(O)c(O)c1)Nc1cccc(F)c1
6 | 1.87 | 3.81 | O=C(/C=C/c1ccc(O)c(O)c1)Nc1cccc(Cl)c1
7 | 0.00355 | 4.83 | Cc1ccc(NC(=O)/C=C/c2ccc(O)c(O)c2)cc1
8 | 0.00895 | 3.96 | O=C(/C=C/c1ccc(O)c(O)c1)Nc1ccc(Cl)cc1
9 | 0.00597 | 4.71 | Cc1ccccc1NC(=O)/C=C/c1ccc(O)c(O)c1
10 | 1.72 | 4.8 | Cc1cccc(NC(=O)/C=C/c2ccc(O)c(O)c2)c1
11 | 0.00892 | 4.25 | O=C(/C=C/c1ccc(O)c(O)c1)Nc1ccccc1F
12 | 0.00527 | 5.25 | COc1ccccc1NC(=O)/C=C/c1ccc(O)c(O)c1
13 | 0.00913 | 3.25 | O=C(/C=C/c1ccccc1)NCCc1ccccc1
14 | 0.00528 | 5.4 | O=C(/C=C/c1ccccc1)Nc1ccc(O)cc1
15 | 0.00911 | 3.5 | O=C(/C=C/c1cccc(O)c1)Nc1ccc(Cl)cc1
16 | 0.00832 | 3.14 | O=C(/C=C/c1ccc(O)cc1)NCc1ccccc1
17 | 1.76 | 5.22 | COc1cccc(NC(=O)/C=C/c2ccc(O)cc2)c1
18 | 0.00409 | 5.29 | COc1ccc(NC(=O)/C=C/c2ccc(O)cc2)cc1
19 | 1.75 | 4.88 | Cc1cccc(NC(=O)/C=C/c2ccc(O)cc2)c1
20 | 0.00901 | 4.23 | O=C(/C=C/c1ccc(O)cc1)Nc1ccccc1F
21 | 1.58 | 4.43 | O=C(/C=C/c1ccc(O)cc1)Nc1cccc(F)c1

Row | IC50 [1] [µM] | IC50 [2] [µM] | Structure (SMILES)
22 | 0.00844 | 3.6 | O=C(/C=C/c1cccc(O)c1)NCc1ccccc1
23 | 0.00846 | 3.6 | O=C(/C=C/c1cccc(O)c1)NCCc1ccccc1
24 | 0.00557 | 5.21 | O=C(/C=C/c1cccc(O)c1)Nc1ccccc1O
25 | 1.67 | 5.16 | COc1cccc(NC(=O)/C=C/c2cccc(O)c2)c1
26 | 0.00573 | 4.74 | Cc1ccccc1NC(=O)/C=C/c1cccc(O)c1
27 | 0.00909 | 4.12 | O=C(/C=C/c1cccc(O)c1)Nc1ccccc1F
28 | 1.87 | 4.21 | O=C(/C=C/c1cccc(O)c1)Nc1cccc(F)c1
29 | 0.00859 | 4.39 | O=C(/C=C/c1cccc(O)c1)Nc1ccc(F)cc1
30 | 0.00941 | 3.26 | O=C(/C=C/c1cccc(O)c1)Nc1ccccc1Cl
31 | 0.00805 | 3.24 | O=C(/C=C/c1ccc(O)c(O)c1)Nc1ccccc1
32 | 0.00837 | 3.22 | O=C(/C=C/c1ccc(O)cc1)NCCc1ccccc1
33 | 0.00509 | 5.62 | O=C(/C=C/c1ccc(O)c(O)c1)Nc1ccccc1O
34 | 0.00822 | 3.25 | O=C(/C=C/c1ccc(O)c(O)c1)NCc1ccccc1
35 | 1.59 | 5.77 | O=C(/C=C/c1ccc(O)c(O)c1)Nc1cccc(O)c1
36 | 0.00328 | 5.83 | O=C(/C=C/c1ccc(O)c(O)c1)Nc1ccc(O)cc1
37 | 0.00841 | 3.4 | O=C(/C=C/c1cccc(O)c1)Nc1ccccc1 [3-HYDROXY-CINNAMANILIDE]
38 | 0.0082 | 3.3 | O=C(/C=C/c1ccc(O)c(O)c1)NCCc1ccccc1 [CAFFEIC ACID PHENETHYL AMIDE]
39 | 1.95 | 4.59 | Cc1cccc(NC(=O)/C=C/c2ccccc2)c1 [N-M-TOLYLCINNAMAMIDE]
40 | 0.00641 | 4.52 | Cc1ccccc1NC(=O)/C=C/c1ccccc1 [N-O-TOLYLCINNAMAMIDE]
41 | 0.00546 | 4.67 | Cc1ccc(NC(=O)/C=C/c2ccccc2)cc1 [N-P-TOLYLCINNAMAMIDE]

Row | Structure (SMILES) | IC50 [1] [µM] | IC50 [2] [µM]
42 | O=C(O)/C=C/c1ccc(O)c(O)c1 [CAFFEIC ACID] | 0.0243 | 0.239
